Measured values: patent US11014911B2, “CDK2 inhibitors” (Pfizer Inc., priority 2019, dated 2021)

Molecular target: CDK2/Cyclin E1 full length (Homo sapiens (Human), UniProt P24941)
Assay: CDK2/Cyclin E1 full length mobility shift assay
Type: biochemical

Row | Ki | SMILES
1 | 3.07 nM | O=C(Cc1ccno1)Nc1cc([C@H]2CC[C@@H](OC(=O)NC3CCC3)C2)[nH]n1 [Example 458, (1R,3S)-3-{3-[(1,2-oxazol-5-ylacetyl)amino]-1H-pyrazol-5-yl}cyclopentyl cyclobutylcarbamate]
2 | 2.03 nM | CCC(CO)CNC(=O)O[C@@H]1CC[C@H](c2cc(NC(=O)Cc3ccc(OC)cc3)n[nH]2)C1 (single isomer, unassigned) [Example 530]
3 | 2.98 nM | COc1cc(CC(=O)Nc2cc([C@H]3CC[C@@H](OC(=O)N4C[C@H](O)[C@H]4C)C3)[nH]n2)ccn1 [Example 613, (1R,3S)-3-(3-{[(2-methoxypyridin-4-yl)acetyl]amino}-1H-pyrazol-5-yl)cyclopentyl (2R,3S)-3-hydroxy-2-methylazetidine-1-carboxylate]
4 | 1.55 nM | COc1nn(C)cc1CC(=O)Nc1cc([C@H]2CC[C@@H](OC(=O)NC(C)(C)C)C2)[nH]n1 [Example 309, (1R,3S)-3-(3-{[(3-methoxy-1-methyl-1H-pyrazol-4-yl)acetyl]amino}-1H-pyrazol-5-yl)cyclopentyl tert-butylcarbamate]
5 | 0.41 nM | CC[C@H](C)NC(=O)O[C@@H]1CC[C@H](c2cc(NC(=O)Cc3ccccc3S(C)(=N)=O)n[nH]2)C1 (single isomer, unassigned) [Example 368]
6 | 1.11 nM | Cc1cnc(CC(=O)Nc2cc([C@H]3CC[C@@H](OC(=O)N4[C@@H](C)C[C@@H]4C)C3)[nH]n2)cn1 [Example 608, (1R,3S)-3-(3-{[(5-methylpyrazin-2-y)acetyl]amino}-1H-pyrazol-5-yl)cyclopentyl (2S,4S)-2,4-dimethylazetidine-1-carboxylate]
7 | 3.01 nM | C[C@H]1[C@H](C#N)CN1C(=O)O[C@@H]1CC[C@H](c2cc(NC(=O)Cc3ccccc3)n[nH]2)C1 (single isomer, unassigned) [Example 162]
8 | 2.63 nM | Cc1ncc(CC(=O)Nc2cc([C@H]3CC[C@@H](OC(=O)N[C@H]4CCC[C@H]4C)C3)[nH]n2)s1 [Example 464, (1R,3S)-3-(3-{[(2-methyl-1,3-thiazol-5-yl)acetyl]amino}-1H-pyrazol-5-yl)cyclopentyl [(1S,2R)-2-methylcyclopentyl]carbamate]
9 | 2.21 nM | CC(CC(F)(F)F)NC(=O)O[C@@H]1CC[C@H](c2cc(NC(=O)Cc3ccn(C)n3)n[nH]2)C1 (single isomer, unassigned) [Example 65]
10 | 3.64 nM | O=C(Cc1cc(F)cc(F)c1)Nc1cc([C@@H]2CC[C@H](OC(=O)NC[C@@H]3C[C@H]3CO)C2)[nH]n1 [Example 578, (1S,3R)-3-(3-{[(3,5-difluorophenyl)acetyl]amino}-1H-pyrazol-5-yl)cyclopentyl {[(1R,2R)-2-(hydroxymethyl)cyclopropyl]-methyl}carbamate]
11 | 2.11 nM | Cc1cc(CC(=O)Nc2cc([C@H]3CC[C@@H](OC(=O)N4CCC[C@H]4C)C3)[nH]n2)on1 [Example 633, (1R,3S)-3-(3-{[(3-methyl-1,2-oxazol-5-yl)acetyl]amino}-1H-pyrazol-5-yl)cyclopentyl (2R)-2-methylpyrrolidine-1-carboxylate]
12 | 2.71 nM | CN1CC(CNC(=O)O[C@H]2CC[C@@H](c3cc(NC(=O)Cc4cc(F)cc(F)c4)n[nH]3)C2)OCC1=O (single isomer, unassigned) [Example 583]
13 | 2.72 nM | CC(CO)CNC(=O)O[C@@H]1CC[C@H](c2cc(NC(=O)Cc3cc(F)cc(F)c3)n[nH]2)C1 (single isomer, unassigned) [Example 538]

Second part, the compound before the results:

Row | SMILES | Ki
14 | Cc1cnc(CC(=O)Nc2cc([C@H]3CC[C@@H](OC(=O)NC4(C)CCOC4)C3)[nH]n2)o1 (single isomer, unassigned) [Example 478] | 1.13 nM
15 | CC1(NC(=O)O[C@@H]2CC[C@H](c3cc(NC(=O)Cc4cc(C(F)(F)F)ccn4)n[nH]3)C2)CC1 [Example 444, (1R,3S)-3-[3-({[4-(trifluoromethyl)pyridin-2-yl]acetyl}amino)-1H-pyrazol-5-yl]cyclopentyl (1-methylcyclopropyl)carbamate] | 1.41 nM
16 | C[C@H]1CCN1C(=O)O[C@@H]1CC[C@H](c2cc(NC(=O)c3cncn3C)n[nH]2)C1 [Example 585, (1R,3S)-3-(3-{[(1-methyl-1H-imidazol-5-yl)carbonyl]amino}-1H-pyrazol-5-yl)cyclopentyl (2S)-2-methylazetidine-1-carboxylate] | 2.57 nM
17 | CC1(NC(=O)O[C@@H]2CC[C@H](c3cc(NC(=O)Cc4ccno4)n[nH]3)C2)CCOC1 (single isomer, unassigned) [Example 474] | 0.44 nM
18 | O=C(Cc1nccs1)Nc1cc([C@H]2CC[C@@H](OC(=O)NCCC(F)(F)F)C2)[nH]n1 [Example 219, (1R,3S)-3-{3-[(1,3-thiazol-2-ylacetyl)amino]-1H-pyrazol-5-yl}cyclopentyl (3,3,3-trifluoropropyl)carbamate] | 3.81 nM
19 | CC1(NC(=O)O[C@@H]2CC[C@H](c3cc(NC(=O)Cc4ccccn4)n[nH]3)C2)CC1 [Example 420, (1R,3S)-3-{3-[(pyridin-2-ylacetyl)amino]-1H-pyrazol-5-yl}cyclopentyl (1-methylcyclopropyl)carbamate] | 0.54 nM
20 | CC(CO)CNC(=O)O[C@@H]1CC[C@H](c2cc(NC(=O)Cc3cc(F)cc(F)c3)n[nH]2)C1 (single isomer, unassigned) [Example 539] | 2.35 nM
21 | CCCN(CCC)C(=O)O[C@@H]1CC[C@H](c2cc(NC(=O)Cc3ccno3)n[nH]2)C1 [Example 225, (1R,3S)-3-{3-[(1,2-oxazol-5-ylacetyl)amino]-1H-pyrazol-5-yl}cyclopentyl dipropylcarbamate] | 2.67 nM
22 | CCC1(NC(=O)O[C@@H]2CC[C@H](c3cc(NC(=O)Cc4cnc(OC)cn4)n[nH]3)C2)CC1 [Example 450, (1R,3S)-3-(3-{[(5-methoxypyrazin-2-yl)acetyl]amino}-1H-pyrazol-5-yl)cyclopentyl (1-ethylcyclopropyl)carbamate] | 0.38 nM
23 | Cc1ccc(C(=O)Nc2cc([C@H]3CC[C@@H](OC(=O)NC4(CC(F)(F)F)CC4)C3)[nH]n2)cn1 [Example 452, (1R,3S)-3-(3-{[(6-methylpyridin-3-yl)carbonyl]amino}-1H-pyrazol-5-yl)cyclopentyl [1-2,2,2-trifluoroethyl)cyclopropyl] carbamate] | 0.51 nM
24 | CC(C)(O)CNC(=O)O[C@@H]1CC[C@H](c2cc(NC(=O)Cc3cc(F)cc(F)c3)n[nH]2)C1 [Example 574, (1R,3S)-3-(3-{[(3,5-difluorophenyl)acetyl]amino}-1H-pyrazol-5-yl)cyclopentyl (2-hydroxy-2-methylpropyl)carbamate] | 4.07 nM
25 | Cc1cn(CC(=O)Nc2cc([C@H]3CC[C@@H](OC(=O)NC(C)(C)C)C3)[nH]n2)nn1 [Example 297, (1R,3S)-3-(3-{[(4-methyl-1H-1,2,3-triazol-1-yl)acetyl]amino}-1H-pyrazol-5-yl)cyclopentyl tert-butylcarbamate] | 1.17 nM
26 | COCc1cc(C(=O)Nc2cc([C@H]3CC[C@@H](OC(=O)N4CC[C@@H]4C)C3)[nH]n2)n(C)n1 [Example 595, (1R,3S)-3-[3-({[3-(methoxymethyl)-1-methyl-1H-pyrazol-5-yl]carbonyl}amino)-1H-pyrazol-5-yl]cyclopentyl (2S)-2-methylazetidine-1-carboxylate] | 1.52 nM
27 | COc1cc(C(=O)Nc2cc([C@H]3CC[C@@H](OC(=O)N[C@@H](C)CC(F)(F)F)C3)[nH]n2)n(C)n1 [Example 94] | 0.15 nM
28 | CC(CC(F)(F)F)NC(=O)O[C@@H]1CC[C@H](c2cc(NC(=O)c3ccnn3CCN(C)C)[nH]n2)C1 (single isomer, unassigned) [Example 409] | 4.15 nM
29 | CC1(NC(=O)O[C@@H]2CC[C@H](c3cc(NC(=O)Cc4cn(CC(F)(F)F)nn4)n[nH]3)C2)CC1 [Example 446, (1R,3S)-3-[3-({[1-(2,2,2-trifluoroethyl)-1H-1,2,3-triazol-4-yl]acetyl}amino)-1H-pyrazol-5-yl]cyclopentyl (1-methylcyclopropyl)carbamate] | 1.7 nM
30 | CC1(NC(=O)O[C@@H]2CC[C@H](c3cc(NC(=O)CC4COc5ccccc54)n[nH]3)C2)CCOC1 (stereo partly drawn) [Example 491, (1R,3S)-3-(3-{[(3ξ)-2,3-dihydro-1-benzofuran-3-ylacetyl]amino}-1H-pyrazol-5-yl)cyclopentyl [(3ξ)-3-methyltetrahydrofuran-3-yl]carbamate] | 3.87 nM
31 | Cc1cccnc1CC(=O)Nc1cc([C@H]2CC[C@@H](OC(=O)NC3(C)CC3)C2)[nH]n1 [Example 427, (1R,3S)-3-(3-{[(3-methylpyridin-2-yl)acetyl]amino}-1H-pyrazol-5-yl)cyclopentyl (1-methylcyclopropyl)carbamate] | 1.78 nM
32 | CC[C@H](C)NC(=O)O[C@@H]1CC[C@H](c2cc(NC(=O)Cc3cnc(OC)cn3)n[nH]2)C1 [Example 347, (1R,3S)-3-(3-{[(5-methoxypyrazin-2-yl)acetyl]amino}-1H-pyrazol-5-yl)cyclopentyl (2S)-butan-2-ylcarbamate] | 0.37 nM
33 | Cc1cnc(CC(=O)Nc2cc([C@H]3CC[C@@H](OC(=O)N[C@@H](C)C4CC4)C3)[nH]n2)cn1 [Example 470, (1R,3S)-3-(3-{[(5-methylpyrazin-2-yl)acetyl]amino}-1H-pyrazol-5-yl)cyclopentyl [(1S)-1-cyclopropylethyl]carbamate] | 0.83 nM
34 | CC(CC(F)(F)F)NC(=O)O[C@@H]1CC[C@H](c2cc(NC(=O)Cc3cnn(C(C)C)c3)n[nH]2)C1 (single isomer, unassigned) [Example 407] | 1.16 nM
35 | CCCNC(=O)O[C@@H]1CC[C@H](c2cc(NC(=O)Cc3ccc(C)cc3S(C)(=O)=O)n[nH]2)C1 [Example 207, (1R,3S)-3-[3-({[4-methyl-2-(methylsulfonyl)phenyl]acetyl}amino)-1H-pyrazol-5-yl]cyclopentyl propylcarbamate] | 0.66 nM
36 | CCCNC(=O)O[C@@H]1CC[C@H](c2cc(NC(=O)Cc3ccc(COC)cc3S(C)(=O)=O)[nH]n2)C1 [Example 215, (1R,3S)-3-[5-({[4-(methoxymethyl)-2-(methylsulfonyl)phenyl]acetyl}amino)-1H-pyrazol-3-yl]cyclopentyl propylcarbamate] | 1.26 nM
37 | CCC1(NC(=O)O[C@@H]2CC[C@H](c3cc(NC(=O)Cc4ncc(C)o4)n[nH]3)C2)CC1 [Example 448, (1R,3S)-3-(3-{[(5-methyl-1,3-oxazol-2-yl)acetyl]amino}-1H-pyrazol-5-yl)cyclopentyl (1-ethylcyclopropyl)carbamate] | 0.29 nM
